Tests used:
Type in all cases: in vivo
Myzus persicae = experiment: Insecticidal activity against Myzus persicae, Airbrush spray on cabbage leaves; conditions: 50 mg/L, after 48 h, read-out: mortality rate against Myzus persicae
Experimental: (§1) After the compound to be determined was dissolved in a mixed solvent of acetone/methanol (1:1), it was diluted with water containing 0.1% (wt) Tween-80 to a desired concentration.
(§2) Mythimna separata, Diamondback moth, Chilo suppressalis, Spodoptera exigua, Myzus persicae, and Franklinella occidentalis were used as targets, and the activity was tested by an Airbrush spray method.
Determination method: a culture dish with a diameter of 6 cm was taken, the bottom of the dish was covered by a layer of filter paper, and an appropriate amount of tap water was added to moisturize the paper. Cabbage leaves with an appropriate size (the diameter was about 3 cm) and 15-30 aphids grown were cut from cabbage plants used to culture Myzus persicae, winged aphids and aphids on the front of the leave were removed, and it was placed in the culture dish while the back of the leave was upward. The pressure of airbrush spray treatment was 10 psi (about 0.7 kg/cm^2), the liquid spray volume was 0.5 mL, and there were 3 replicates for each treatment. After the treatment, the leave was put into an observation room for culture at 25° C. and a relative humidity of 60-70%. After 48 h, the number of live insects was investigated and the mortality rate was calculated.

Diamondback moth = experiment: Insecticidal activity against Diamondback moth, Airbrush spray on cabbage leaf discs; conditions: Plutella xylostella, foliar, 72 h, 3 days after the administration; for mortality at 0.156 µg/mL: 0.156 mg/L, read-out: Mortality rate (%, 3 days after the administration) 0.156 mg/L; for mortality at 0.156 µg/mL / mortality at 0.313 µg/mL / mortality at 10 µg/mL: Diamondback moth; for mortality at 0.313 µg/mL: 0.313 mg/L, read-out: Mortality rate (%, 3 days after the administration) 0.313 mg/L; for mortality at 1.25 µg/mL: 1.25 mg/L, 3rd-instar larvae, read-out: mortality rate against Diamondback moth; for mortality at 10 µg/mL: 10 mg/L, read-out: Mortality rate (%, 3 days after the administration) 10 mg/L
Experimental: as §1, §2
Determination method: cabbage leaves were formed into leaf discs having a diameter of 2 cm using a puncher, and the front and back of each leaf disc were sprayed under an Airbrush spray treatment pressure of 10 psi (approximate to 0.7 kg/cm^2) and with a spray volume of 0.5 mL. After drying in the shade, 10 3rd-instar larvae were inoculated for each treatment, and each treatment was repeated for 3 times. After the treatment, the leaf discs were placed into an observation chamber at 25° C. and with a relative humidity of 60% to 70%, and the number of living larvae was investigated 3 days after the administration of the compounds, and the mortality rates were calculated.

cat flea = experiment: Insecticidal experiment on cat flea, thin film in culture dish; conditions: Ctenocephalides felis, 72 h, read-out: mortality rate, cat flea
Experimental: 4 mg of the compound to be determined was dissolved in 40 mL of acetone to obtain an acetone solution with a concentration of 100 mg/L. 400 μL of the drug solution was applied on the bottom and sides of a culture dish with an inner diameter of 5.3 cm, then after acetone was evaporated, a thin film of the compound of the present invention was made on the inner wall of the culture dish. The inner wall of the culture dish used was 40 cm^2, and the treatment dosage was 1 μg/cm^2. 10 adult cat fleas (mixed male and female) were put into the dish, and it was stored in a constant-temperature room at 25° C. after being covered. The number of dead insects after 72 h was checked and the mortality rate was calculated. The experiment was repeated for 3 times.

Spodoptera exigua = experiment: Insecticidal activity against Spodoptera exigua, leaf disc dipping feeding method; conditions: foliar, 72 h, 0.625 mg/L, 3 days after the administration, read-out: mortality rate against Spodoptera exigua
Experimental: After the compound to be determined was dissolved in a mixed solvent of acetone/methanol (1:1), it was diluted with water containing 0.1% (wt) Tween-80 to a desired concentration. […]
Determination method: the activity was tested by using a leaf disc dipping feeding method. Leaf discs were dipped in a drug solution for 10 s, and placed in a culture dish after being air-dried, there were 4 discs in each dish, and a filter paper was placed in the culture dish for moisture retention. 10 test insects of Spodoptera exigua were introduced to each dish, with 3 replicates.
They were placed in a light incubator for culture at a temperature of 25° C. and an illumination of 14hL:10hD. On the 1st, 2nd, and 3rd day after the administration, the number of dead Spodoptera exigua was investigated and the mortality rate was calculated.

[1] = tested on: Franklinella occidentalis; experiment: Insecticidal activity against Franklinella occidentalis nymphs, sprayed bean leaves
Experimental: as §1, §2
Determination method: fresh bean leaves cultivated in a greenhouse were selected, a hand-held Airbrush sprayer was used to spray uniformly, each treatment was 1 mL, and after being air-dried naturally, the leaves were placed in a finger-shaped tube. Neat and healthy Franklinella occidentalis nymphs were introduced, there were 15 nymphs for each treatment, 3 replicates were set for the experiment, and water treatment was set as a blank control. After the treatment, the leaves were put into an indoor culture room for culture at 24° C., a relative humidity of 60-70%, and natural light. After 72 h, the number of live insects was investigated and the mortality rate was calculated.

Chilo suppressalis = experiment: Insecticidal activity against Chilo suppressalis, sprayed rice stems; conditions: 72 h, 0.625 mg/L, 3 days after the administration, 3rd-instar larvae, read-out: mortality rate against Chilo suppressalis
Experimental: as §1, §2
Determination method: 1) Preparation of rice seedlings: rice was cultured in a plastic small cup with a diameter of 4.5 cm and a height of 4 cm in a constant temperature room (the temperature was 26-28° C., the relative humidity was about 60-80%, and the illumination was 16hL:8hD), when the rice grown to a 4-5 leaf stage, robust and uniformly grown rice seedlings were selected for pharmaceutical treatment, and 3 replicates were set for each treatment. 2) Preparation of test insects: 3rd-instar larvae of Chilo suppressalis were continuously reared indoors. 3) Rice stems were sprayed and insects were introduced. A spray method was used to treat whole rice seedlings with uniform spray, and each treatment was 15 mL. Blank controls were treated firstly, and then the above operation was repeated in an order of experimental concentrations from low to high. After the spray treatment of the rice seedlings, they were placed in the shade to air-dry drug liquid, about 5 cm of the stem from a basal part of the stem was cut and fed to the test insects. A glass culture dish with a diameter of 90 mm was prepared, filter paper was placed on the bottom of the dish, then water was added to moisturize. About 5 rice stems were placed in each dish, 10 larvae were introduced, and the culture dish was closed with non-woven fabric and placed in the constant-temperature room for culture. 3 days after the administration, the number of residual live insects was investigated.

Mythimna separata = experiment: Insecticidal activity against Mythimna separata, Airbrush spray on maize leaf pieces; conditions: 72 h, 0.05 mg/L, 3 days after the administration, 3rd-instar larvae, read-out: mortality rate against Mythimna separata
Experimental: as §1, §2
Determination method: maize leaves were cut into 2 cm leaf pieces, and the front and back of each leaf piece were sprayed under an Airbrush spray treatment pressure of 10 psi (approximate to 0.7 kg/cm^2) and with a spray volume of 0.5 mL. After drying in the shade, 10 3rd-instar larvae were inoculated for each treatment, and each treatment was repeated for 3 times. After the treatment, the leaf pieces were put into an observation chamber at 25° C. and with a relative humidity of 60% to 70%, and the number of living larvae was investigated 3 days after the administration of the compounds, and the mortality rates were calculated.

Row | SMILES | mortality at 50 µg/mL (Myzus persicae) | mortality at 0.156 µg/mL (Diamondback moth) | mortality at 0.313 µg/mL (Diamondback moth) | mortality at 1.25 µg/mL (Diamondback moth) | mortality at 10 µg/mL (Diamondback moth) | mortality at 1 µg/cm2 (cat flea) | mortality at 0.625 µg/mL (Spodoptera exigua) | Mortality rate (%, 3 days after the administration) 10 mg/L [1] | Mortality rate (%, 3 days after the administration) 100 mg/L [1] | mortality at 0.625 µg/mL (Chilo suppressalis) | mortality at 0.05 µg/mL (Mythimna separata)
1 | C=CCN(C(=O)c1ccc(F)cc1)c1cccc(C(=O)Nc2c(I)cc(C(F)(C(F)(F)F)C(F)(F)F)cc2C(F)(F)F)c1F [Compound 8] | > 90% | 100% | 100% | > 90% | 100% | > 90% | > 90% | 88.89% | 100% | > 90% | > 90%
2 | C#CCN(C(=O)c1ccc(F)cc1)c1cccc(C(=O)Nc2c(Br)cc(C(F)(C(F)(F)F)C(F)(F)F)cc2C(F)(F)F)c1F [Compound 35] | > 90% | 100% | 100% | > 90% | 100% | > 90% | > 90% | 100% | 100% | > 90% | > 90%
3 | C=CCN(C(=O)c1ccccc1)c1cccc(C(=O)Nc2c(Br)cc(C(F)(C(F)(F)F)C(F)(F)F)cc2C(F)(F)F)c1F [Compound 3] | > 90% | 100% | 100% | > 90% | 100% | > 90% | > 90% | 93.33% | 100% | > 90% | > 90%
4 | C=CCN(C(=O)c1ccc(F)nc1)c1cccc(C(=O)Nc2c(I)cc(C(F)(C(F)(F)F)C(F)(F)F)cc2C(F)(F)F)c1F [Compound 20] | > 90% | 100% | 100% | > 90% | 100% | > 90% | > 90% | 100% | 100% | > 90% | > 90%
5 | C=CCN(C(=O)c1ccccc1)c1cccc(C(=O)Nc2c(I)cc(C(F)(C(F)(F)F)C(F)(F)F)cc2C(F)(F)F)c1F [Compound 4] | > 90% | – | – | > 90% | 100% | > 90% | > 90% | – | – | > 90% | > 90%
6 | C=CCN(C(=O)c1ccc(C(F)(F)F)nc1)c1cccc(C(=O)Nc2c(I)cc(C(F)(C(F)(F)F)C(F)(F)F)cc2C(F)(F)F)c1F [Compound 28] | > 90% | – | – | > 90% | 100% | > 90% | > 90% | – | – | > 90% | > 90%
7 | C#CCN(C(=O)c1ccc(F)cc1)c1cccc(C(=O)Nc2c(I)cc(C(F)(C(F)(F)F)C(F)(F)F)cc2C(F)(F)F)c1F [Compound 36] | > 90% | 100% | 100% | > 90% | 100% | > 90% | > 90% | 95.56% | 100% | > 90% | > 90%
8 | C=CCN(C(=O)c1ccc(C#N)nc1)c1cccc(C(=O)Nc2c(Br)cc(C(F)(C(F)(F)F)C(F)(F)F)cc2C(F)(F)F)c1F [Compound 23] | > 90% | – | – | > 90% | 100% | > 90% | > 90% | – | – | > 90% | > 90%
9 | C#CCN(C(=O)c1ccc(C#N)cc1)c1cccc(C(=O)Nc2c(I)cc(C(F)(C(F)(F)F)C(F)(F)F)cc2C(F)(F)F)c1F [Compound 40] | > 90% | – | – | > 90% | 100% | > 90% | > 90% | – | – | > 90% | > 90%
10 | C#CCN(C(=O)c1ccccc1)c1cccc(C(=O)Nc2c(I)cc(C(F)(C(F)(F)F)C(F)(F)F)cc2C(F)(F)F)c1F [Compound 32] | > 90% | – | – | > 90% | 100% | > 90% | > 90% | – | – | > 90% | > 90%
11 | C#CCN(C(=O)c1ccc(C#N)nc1)c1cccc(C(=O)Nc2c(Br)cc(C(F)(C(F)(F)F)C(F)(F)F)cc2C(F)(F)F)c1F [Compound 51] | > 90% | – | – | > 90% | 100% | > 90% | > 90% | – | – | > 90% | > 90%
12 | C#CCN(C(=O)c1ccc(C(F)(F)F)nc1)c1cccc(C(=O)Nc2c(I)cc(C(F)(C(F)(F)F)C(F)(F)F)cc2C(F)(F)F)c1F [Compound 56] | > 90% | – | – | > 90% | 100% | > 90% | > 90% | – | – | > 90% | > 90%

Reference: patent US20240199552A1, “AMIDE COMPOUND AND USE THEREOF” (Metisa Biotechnology Co., Ltd, priority 2021, published 2024)
